Values quoted from earlier work in patent publication US20040138296A1, “Amyloid immunization and Cox-2 inhibitors for the treatment of alzheimer's disease” (Pharmacia Corporation, priority 2002, published 2004).

Key:
AD patients [1] = conditions: for other adverse effects: metrifonate in Phase III trials
[2] = system: glia reaction, iNOS production; conditions: once a day, seven days following the injection
AD patients [3] = conditions: over 300 AD patients
[4] = system: mild or moderately impaired Alzheimer's disease patients; conditions: 100-150 mg, 6 months
NG108-15 cells = conditions: by inhibition of APP mRNA level
neurons = conditions: Abeta (25-35) and Abeta (1-40)
[5] = system: microglial and astrocytic activation; conditions: adult rats, Abeta (1-42) into nucleus basalis

Question: For `CCN(C)C(=O)Oc1cccc([C@H](C)N(C)C)c1` [Rivastigmine], which duration of action (AD patients [1]; human, in vivo) is on record?
Answer: Its duration of action is 10 h.

Question: What about the gastrointestinal side effects (AD patients [1]; patients) of the same compound?
Answer: Its gastrointestinal side effects is “some gastrointestinal side effects”.

Question: What about the other adverse effects (AD patients [1]; patients) of the same compound?
Answer: The other adverse effects was “weight loss”.

Question: For `CS(=O)(=O)Nc1ccc([N+](=O)[O-])cc1Oc1ccccc1` [nimesulide, N-(4-Nitro-2-phenoxy-phenyl)-methanesulfonamide], which astrocytic reaction [2] is on record?
Answer: Its astrocytic reaction is “no effect on astrocytic reaction”.

Question: And the microglia reaction [2]?
Answer: The microglia reaction was “attenuated microglia reaction”.

Question: What about the “number of iNOS-positive cells” value [2] of the same compound?
Answer: Its value is “reduced the number of iNOS-positive cells”.

Question: With `Nc1c2c(nc3ccccc13)CCCC2` [Tacrine] as the compound, how does the half-life (AD patients [1]; cholinesterase inhibitor in AD use) read?
Answer: The half-life was “short half-life”.

Question: What about the hepatotoxicity (AD patients [1]; patients) of the same compound?
Answer: The hepatotoxicity was “hepatotoxic effects in a number of patients”.

Question: With `C#CCN(C)[C@H](C)Cc1ccccc1` [selegeline, Selegiline] as the compound, how does the “progression of the disease” value (AD patients [3]) read?
Answer: The value was “slow the progression of the disease”.

Question: For `CC(C)Cc1ccc(C(C)C(=O)O)cc1` (centres unmarked) [ibuprofen], which astrocytic reaction [2] is on record?
Answer: Its astrocytic reaction is “no effect on astrocytic reaction”.

Question: And the microglia reaction [2]?
Answer: The microglia reaction was “attenuated microglia reaction”.

Question: What about the “number of iNOS-positive cells” value [2] of the same compound?
Answer: The value was “reduced the number of iNOS-positive cells”.

Question: Which “cognitive decline versus placebo” value [4] does the source give for `COc1ccc2c(c1)c(CC(=O)O)c(C)n2C(=O)c1ccc(Cl)cc1` [indomethacin] here?
Answer: The value was “appeared to protect the patients”.

Question: And the “production of amyloid β-peptide and a secreted form of APP” value (NG108-15 cells)?
Answer: The value was “suppressed production”.

Question: Which other adverse effects (AD patients [1]; patients) does the source give for `COP(=O)(OC)C(O)C(Cl)(Cl)Cl` (centres unmarked) [metrifonate] here?
Answer: The other adverse effects was “leg cramps and muscle cramps”.

Question: With `COc1cc2c(cc1OC)C(=O)C(CC1CCN(Cc3ccccc3)CC1)C2` (centres unmarked) [Donepezil] as the compound, how does the AD-associated deterioration (AD patients [1]; controlled trials, mild to moderately severe AD patients) read?
Answer: Its AD-associated deterioration is “can delay AD-associated deterioration”.

Question: What about the gastrointestinal side effects (AD patients [1]; patients) of the same compound?
Answer: Its gastrointestinal side effects is “relatively low incidence of gastrointestinal side effects”.

Question: Which “Abeta induced cell death of neurons” value (neurons) does the source give for `CCN1CC/C(=C\c2cc(C(C)(C)C)c(O)c(C(C)(C)C)c2)S1(=O)=O` [Compound S-2474] here?
Answer: The value was “significantly prevented”.

Question: For `CS(=O)(=O)c1ccc(C2=C(c3ccccc3)C(=O)OC2)cc1` [rofecoxib], which “microglial and astrocytic activation” value [5] is on record?
Answer: Its value is “attenuated microglial and astrocytic activation”.

Question: For `Cc1c(C)c2c(c(C)c1O)CC[C@@](C)(CCC[C@H](C)CCC[C@H](C)CCCC(C)C)O2` [vitamin E, alpha-tocopherol], which “progression of the disease” value (AD patients [3]) is on record?
Answer: The value was “slow the progression of the disease”.
